In the assay the target is PI3K-alpha (Homo sapiens (Human), UniProt P42336). In words: HTRF PI3K biochemical assay, alpha isoform. The note with it: ratio PI3K-alpha IC50 value/PI3K-delta IC50 value. The text has this:
HTRF PI3K Biochemical Assay to Measure Intrinsic Potency of Compound Inhibitors
The PI3-Kinase biochemical assays were developed to measure the intrinsic potency and compound dependent inhibition of the alpha, beta, delta, and gamma PI3K isoform enzymes. This assay was developed and further optimized from a kit produced by Upstate (Millipore catalog #33-047) and has been configured for HTS and SAR screening. Briefly, this procedure exploits the exquisite specificity and high affinity binding of enzyme reaction substrate phosphatidyl(3,4,5)triphosphate (PIP3) to the GRP1 pleckstrin homology (PH) domain to generate the signal. In the absence of PIP3, an HTRF (Homogeneous Time-Resolved Fluorescence energy transfer) complex is formed consisting of europium (Eu)-labeled anti-GST, GST tagged GRP1-PH domain, biotin-PIP3 and streptavidin conjugated APC. The native PIP3 produced by PI3-Kinase activity disrupts in a competitive manner the biotin-PIP3 from the PH domain, resulting in the loss of energy transfer (HTRF complex) and a decrease in the signal. The format of this assay is the same for all 4 isoforms of PI3K; the differences lie in the concentration of enzyme used to achieve robust assay window. The alpha, beta, and delta assays are run at 0.5, 1, and 0.3 nM enzymes and the gamma assay is run at 5 nM enzyme. The ATP concentration is 100 uM in the alpha, beta, and delta assays and 50 uM ATP in the gamma assay. All reactions are run at 5 uM PIP2.
Compounds are serially diluted (3-fold in 100% DMSO) across a 384-well polypropylene source plated from column 3 to column 12 and column 13 to column 22, to yield 10 concentration dose response for each test compound. Columns 1, 2, 23 and 24 contain either only DMSO or pharmacological known control inhibitor.
The PI3-Kinase biochemical assay was optimized using the HTRF kit provided by Upstate (Millipore). The assay kit contains six reagents: 1) 4× Reaction Buffer; 2) native PIP2 (substrate); 3) Stop (EDTA); 4) Detection Mix A (Streptavidin-APC); 5) Detection Mix B (Eu-labeled Anti-GST plus GST-tagged PH-domain); 6) Detection Mix C.
PI3Kinase Reaction Buffer is prepared by dilution the stock 1:4 with de-ionized water. […] Enzyme addition and compound pre-incubation are initiated by the addition of 1.25 ul of PI3K (at twice its final concentration) in the 1× reaction buffer to all wells using a BioRaptor. Plates are incubated at room temperature for 15 minutes. Reactions are initiated by addition of 1.25 ul of 2× substrate solution (PIP2 and ATP in 1× reaction buffer) using BioRaptor. Plates are incubated in humidified chamber at room temperature for one hour. Reactions are quenched by addition of 0.625 uL of stop solution to all wells using the BioRaptor. The quenched reactions are then processed to detect product formation by adding 0.625 uL of Detection Solution to all wells using the BioRaptor (Detection mix C, Detection Mix A, and Detection Mix B combined together in an 18:1:1 ratio prepared 2 hours prior to use).
The loss of the HTRF signal is due to the displacement of biotinylated-PIP3 from the PH domain by the PI3K-dependent conversion of PIP2 to PIP3. This loss of signal is nonlinear with respect to both increasing product and time. This non-linear detection will impact accuracy of IC50 calculations; therefore, there is a need for a correction factor to obtain more accurate IC50 values. This correction is derived from a PIP3 standard curve run in a separate assay plate. All data were calculated using the ratio of acceptor (APC) to donor (Europium) fluorescence in each well of the assay plate. […] An IC50 was then calculated fitting the % inhibition data to the equation: % inhibition=min+(Max−min)/1+([inhibitor]/IC50)^n) where min is the % inhibition […], max is the signal in DMSO control, and n is the Hill slope.
On the technique in general: Time-resolved FRET reads energy transfer from a long-lived donor to a nearby acceptor.
Sequence of PI3K-alpha (P42336 whole entry, looked up, canonical isoform): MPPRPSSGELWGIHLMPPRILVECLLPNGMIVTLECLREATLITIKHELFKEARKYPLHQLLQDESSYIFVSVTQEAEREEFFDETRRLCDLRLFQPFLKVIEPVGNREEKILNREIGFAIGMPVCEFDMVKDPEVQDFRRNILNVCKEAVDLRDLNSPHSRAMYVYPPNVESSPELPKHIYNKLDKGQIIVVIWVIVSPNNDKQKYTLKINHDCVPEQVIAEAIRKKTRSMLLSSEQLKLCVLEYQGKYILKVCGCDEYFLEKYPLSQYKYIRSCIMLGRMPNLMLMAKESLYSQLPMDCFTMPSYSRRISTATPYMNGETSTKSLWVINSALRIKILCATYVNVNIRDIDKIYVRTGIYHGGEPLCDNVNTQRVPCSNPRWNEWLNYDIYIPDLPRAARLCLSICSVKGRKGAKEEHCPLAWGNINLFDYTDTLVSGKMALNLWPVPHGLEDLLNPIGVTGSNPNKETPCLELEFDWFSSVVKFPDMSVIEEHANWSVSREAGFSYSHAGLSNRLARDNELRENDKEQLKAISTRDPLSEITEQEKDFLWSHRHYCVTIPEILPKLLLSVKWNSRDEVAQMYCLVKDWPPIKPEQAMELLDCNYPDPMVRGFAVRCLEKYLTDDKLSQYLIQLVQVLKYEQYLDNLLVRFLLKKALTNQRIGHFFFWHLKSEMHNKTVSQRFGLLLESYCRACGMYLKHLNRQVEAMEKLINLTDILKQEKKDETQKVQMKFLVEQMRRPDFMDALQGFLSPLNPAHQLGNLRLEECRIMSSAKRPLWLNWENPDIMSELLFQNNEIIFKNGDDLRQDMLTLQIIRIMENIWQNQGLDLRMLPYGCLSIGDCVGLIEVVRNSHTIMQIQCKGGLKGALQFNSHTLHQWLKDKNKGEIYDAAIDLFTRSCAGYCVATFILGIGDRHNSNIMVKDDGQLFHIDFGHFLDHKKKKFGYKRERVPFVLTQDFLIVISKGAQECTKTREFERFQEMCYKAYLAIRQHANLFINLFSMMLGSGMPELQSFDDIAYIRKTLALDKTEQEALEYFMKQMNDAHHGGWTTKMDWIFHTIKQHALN
Sequence of PI3K-alpha (P27986 whole entry partner, looked up, canonical isoform): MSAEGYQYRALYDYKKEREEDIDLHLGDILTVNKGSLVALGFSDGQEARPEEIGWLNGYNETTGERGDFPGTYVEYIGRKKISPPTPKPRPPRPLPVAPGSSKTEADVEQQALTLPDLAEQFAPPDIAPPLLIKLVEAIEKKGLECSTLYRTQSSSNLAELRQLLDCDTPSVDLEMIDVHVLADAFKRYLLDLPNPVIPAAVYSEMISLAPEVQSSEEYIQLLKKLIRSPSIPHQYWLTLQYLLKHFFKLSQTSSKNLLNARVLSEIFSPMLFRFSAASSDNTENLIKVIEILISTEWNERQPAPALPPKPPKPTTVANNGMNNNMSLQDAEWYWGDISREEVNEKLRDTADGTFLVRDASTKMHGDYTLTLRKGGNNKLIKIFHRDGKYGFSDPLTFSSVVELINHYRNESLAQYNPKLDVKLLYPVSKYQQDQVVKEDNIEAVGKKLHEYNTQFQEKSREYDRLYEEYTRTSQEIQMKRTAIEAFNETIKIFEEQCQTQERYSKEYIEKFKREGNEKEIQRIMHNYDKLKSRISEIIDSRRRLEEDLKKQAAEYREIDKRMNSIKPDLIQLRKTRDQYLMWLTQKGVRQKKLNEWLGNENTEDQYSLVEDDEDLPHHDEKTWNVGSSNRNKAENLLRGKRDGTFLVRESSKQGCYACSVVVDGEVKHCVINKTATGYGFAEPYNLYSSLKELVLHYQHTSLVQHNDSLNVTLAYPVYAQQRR
Take `CCn1c(-c2cnc(C)nc2)nc2c(OC3CN(C(=O)C4CC4)CC3C)ncnc21` (single isomer, unassigned) [Compound 3-65, [(3S,4R) or (3R,4S)]6-{[1-(cyclopropylcarbonyl)-4-methylpyrrolidin-3-yl]oxy}-9-ethyl-8-(2-methylpyrimidin-5-yl)-9H-purine]: the “Relative Selectivity versus PI3Kalpha” value is above 10. In the case of `CCn1c(-c2cnc(C)nc2)nc2c(OC3CN(C(=O)C4CC4)CC3C(F)F)ncnc21` (single isomer, unassigned) [Compound 3-66, cyclopropyl([(3R,4S) or (3S,4R)]-3-(difluoromethyl)-4-((9-ethyl-8-(2-methylpyrimidin-5-yl)-9H-purin-6-yl)oxy)pyrrolidin-1-yl)methanone] it was above 10. As for `CCn1c(-c2cnc(C)nc2)nc2c(OC3CN(C(=O)C4CC4)CC3C(F)F)ncnc21` (single isomer, unassigned) [Compound 3-67, cyclopropyl([(3R,4S) or (3S,4R)]-3-(difluoromethyl)-4-((9-ethyl-8-(2-methylpyrimidin-5-yl)-9H-purin-6-yl)oxy)pyrrolidin-1-yl)methanone], the “Relative Selectivity versus PI3Kalpha” value is above 10. As to `CCn1c(-c2cnc(C)nc2)nc2c(OC3CN(C(=O)C4CC4)CC3CF)ncnc21` (single isomer, unassigned) [Compound 3-68, cyclopropyl([(3S,4R) or (3R,4S)]-3-((9-ethyl-8-(2-methylpyrimidin-5-yl)-9H-purin-6-yl)oxy)-4-(fluoromethyl)pyrrolidin-1-yl)methanone], the “Relative Selectivity versus PI3Kalpha” value is listed as above 10. Take `CCn1c(-c2cnc(C)nc2)nc2c(OC3CN(C(=O)C4CC4)CC3CF)ncnc21` (single isomer, unassigned) [Compound 3-69, cyclopropyl([(3S,4R) or (3R,4S)]-3-((9-ethyl-8-(2-methylpyrimidin-5-yl)-9H-purin-6-yl)oxy)-4-(fluoromethyl)pyrrolidin-1-yl)methanone]: the “Relative Selectivity versus PI3Kalpha” value is recorded as above 10. On to `CCn1c(-c2cnc(C)nc2)nc2c(OC3CCC(NC(=O)C4CCOCC4)C3)ncnc21` (single isomer, unassigned) [Compound 9-9, N-[(1S,3S) or (1R,3R)]-(3-{[9-ethyl-8-(2-methylpyrimidin-5-yl)-9H-purin-6-yl]oxy}cyclopentyl)tetrahydro-2H-pyran-4-carboxamide], for which the “Relative Selectivity versus PI3Kalpha” value is above 10.

`CCn1ncc(-c2nc3c(O[C@H]4CCN(C(=O)OC(C)(C)C)C4)ncnc3n2C)c1C` [Compound 1-1, tert-butyl (3S)-3-{[8-(1-ethyl-5-methyl-1H-pyrazol-4-yl)-9-methyl-9H-purin-6-yl]oxy}pyrrolidine-1-carboxylate]: the “Relative Selectivity versus PI3Kalpha” value was above 10. Regarding `CCn1ncc(-c2nc3c(O[C@H]4CCNC4)ncnc3n2C)c1C` [Compound 1-2, 8-(1-ethyl-5-methyl-1H-pyrazol-4-yl)-9-methyl-6-[(3S)-pyrrolidin-3-yloxy]-9H-purine], the “Relative Selectivity versus PI3Kalpha” value is above 5. In the case of `CCn1c(-c2cnc(C)nc2)nc2c(O[C@H]3CCN(C(=O)OC(C)(C)C)C3)ncnc21` [Compound 1-3, (S)-tert-butyl 3-(9-ethyl-8-(2-methylpyrimidin-5-yl)-9H-purin-6-yloxy)pyrrolidine-1-carboxylate] it was above 10. Next, `CCn1ncc(-c2nc3c(O[C@H]4CCN(C(=O)OCC(C)C)C4)ncnc3n2C)c1C` [Compound 1-4, 2-methylpropyl (3S)-3-{[8-(1-ethyl-5-methyl-1H-pyrazol-4-yl)-9-methyl-9H-purin-6-yl]oxy}pyrrolidine-1-carboxylate]: above 10.

Turning to `CCn1ncc(-c2nc3c(O[C@H]4CCN(C(=O)OCc5ccccc5)C4)ncnc3n2C)c1C` [Compound 1-6, benzyl (3S)-3-{[8-(1-ethyl-5-methyl-1H-pyrazol-4-yl)-9-methyl-9H-purin-6-yl]oxy}pyrrolidine-1-carboxylate], the “Relative Selectivity versus PI3Kalpha” value is reported as 4.

For the origin of these results see patent US9730940B2, “Purine inhibitors of human phosphatidylinositol 3-kinase delta” (priority 2012, dated 2017).
